Patent US10472687B2, “Methods to identify antituberculosis compounds” (priority 2016, dated 2019)
Like-named read-outs stand apart in the source and are kept apart here.

Key:
MTB H37Rv wildtype = format: cell-based, Mycobacterium tuberculosis
MTB H37Rv lacking Rv0324 = format: cell-based, Mycobacterium tuberculosis
MTB H37Rv lacking Rv0880 = format: cell-based, Mycobacterium tuberculosis
MTB [1] = format: cell-based, Mycobacterium tuberculosis
[2] = test system: Rv2323c'::GFP strain (Rv0324-responsive promoter); format: cell-based, Mycobacterium tuberculosis; settings: in the presence of BDQ, FIG. 2
MTB [3] = settings: cited from earlier work
[4] = biological target: mycobacterial F1Fo ATP synthase (Mycobacterium tuberculosis, UniProt P9WPS1+P9WPV7); settings: cited from earlier work

COc1nc2ccc(Br)cc2cc1[C@@H](c1ccccc1)[C@@](O)(CCN(C)C)c1cccc2ccccc12 [bedaquiline]
overall growth rate over seven days of treatment (MTB H37Rv wildtype): positive growth rate | greater survival deficiency compared to the wildtype (MTB H37Rv lacking Rv0324): 1.8 log10 | overall growth over seven days of treatment (MTB H37Rv lacking Rv0324): negative overall growth | greater survival deficiency compared to the wildtype (MTB H37Rv lacking Rv0880): 1.3 -fold log10 | overall growth over seven days of treatment (MTB H37Rv lacking Rv0880): negative overall growth | decrease in Rv0880 expression (MTB [1]): > 2.0 absolute log2 fold-change | genes significantly differentially expressed compared to untreated samples (MTB [1]): 1,121 genes | increase in Rv0324 expression upon bedaquiline treatment (MTB [1]): > 1.5 absolute log2 fold-change | downregulated genes among the differentially expressed genes (MTB [1]; 15 μM BDQ, 48 and 96 hours combined): 897 genes | GFP fluorescence of the reporter strain [2]: high level of fluorescence | MTB killing (MTB [3]; after 96 hours): effective MTB killing occurs | bactericidal activity (MTB [3]; during the first 4-6 days): almost no bactericidal activity | bactericidal activity (MTB [3]; first 96 hours after BDQ treatment, even at 30 times the MIC): little bactericidal activity | selectivity for mycobacterial F1Fo ATP synthase [4]: high selectivity
